Legend:
GAK [1] = biological target: T1, GAK (Homo sapiens, UniProt O14976); test: KINOMEscan active site-directed competition binding assay, GAK
T1 sequence (O14976 1-1311): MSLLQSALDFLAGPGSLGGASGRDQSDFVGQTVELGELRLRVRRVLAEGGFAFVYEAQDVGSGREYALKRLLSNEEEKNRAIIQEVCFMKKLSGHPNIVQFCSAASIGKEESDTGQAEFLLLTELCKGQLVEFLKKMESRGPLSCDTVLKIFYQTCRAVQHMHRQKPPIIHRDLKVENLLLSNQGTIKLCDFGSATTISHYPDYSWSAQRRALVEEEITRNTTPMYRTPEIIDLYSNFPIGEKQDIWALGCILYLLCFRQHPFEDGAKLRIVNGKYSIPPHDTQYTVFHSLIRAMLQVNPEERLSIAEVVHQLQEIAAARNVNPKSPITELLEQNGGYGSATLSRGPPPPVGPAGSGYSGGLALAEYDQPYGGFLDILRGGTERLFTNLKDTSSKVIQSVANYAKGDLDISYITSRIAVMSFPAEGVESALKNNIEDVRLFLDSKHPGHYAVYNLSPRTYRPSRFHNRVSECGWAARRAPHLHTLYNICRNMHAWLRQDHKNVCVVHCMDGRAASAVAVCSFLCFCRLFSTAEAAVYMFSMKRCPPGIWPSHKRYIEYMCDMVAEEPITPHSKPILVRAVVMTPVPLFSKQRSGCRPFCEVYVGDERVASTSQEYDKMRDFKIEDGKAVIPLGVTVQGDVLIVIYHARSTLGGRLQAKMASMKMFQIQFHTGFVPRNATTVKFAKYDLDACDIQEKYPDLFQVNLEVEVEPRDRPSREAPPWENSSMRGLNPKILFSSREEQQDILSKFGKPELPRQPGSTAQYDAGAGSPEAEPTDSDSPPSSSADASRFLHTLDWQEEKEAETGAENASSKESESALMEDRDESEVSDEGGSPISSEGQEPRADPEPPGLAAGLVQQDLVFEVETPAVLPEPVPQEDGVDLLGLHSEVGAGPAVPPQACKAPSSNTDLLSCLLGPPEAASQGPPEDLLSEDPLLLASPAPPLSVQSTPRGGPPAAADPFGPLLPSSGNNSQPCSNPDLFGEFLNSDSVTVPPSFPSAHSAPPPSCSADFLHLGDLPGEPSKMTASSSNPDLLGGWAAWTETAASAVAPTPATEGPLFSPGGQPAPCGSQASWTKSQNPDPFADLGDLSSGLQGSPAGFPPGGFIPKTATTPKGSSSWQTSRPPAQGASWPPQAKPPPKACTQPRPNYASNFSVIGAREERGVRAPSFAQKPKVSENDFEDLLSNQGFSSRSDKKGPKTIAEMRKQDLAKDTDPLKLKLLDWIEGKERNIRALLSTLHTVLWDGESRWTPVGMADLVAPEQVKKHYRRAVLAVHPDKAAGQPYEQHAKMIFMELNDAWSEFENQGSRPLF

Huh-7.5 cells = test: Cellular viability, alamarBlue-based assay; details: HCVpp entry assay, 4 hour treatment
HCV RNA replication = HCV RNA replication by luciferase assay after electroporation; assay type: cell-based, hepatitis C virus; details: 72 hours postelectroporation, treated daily
AP2M1 phosphorylation = AP2M1 phosphorylation by Western analysis in Huh-7.5 cells; assay type: cell-based, human; details: calyculin A, versus DMSO control
EGFR = EGFR (Homo sapiens, UniProt P00533); test: EGFR binding / anti-EGFR activity
Chain of EGFR (P00533 25-1210): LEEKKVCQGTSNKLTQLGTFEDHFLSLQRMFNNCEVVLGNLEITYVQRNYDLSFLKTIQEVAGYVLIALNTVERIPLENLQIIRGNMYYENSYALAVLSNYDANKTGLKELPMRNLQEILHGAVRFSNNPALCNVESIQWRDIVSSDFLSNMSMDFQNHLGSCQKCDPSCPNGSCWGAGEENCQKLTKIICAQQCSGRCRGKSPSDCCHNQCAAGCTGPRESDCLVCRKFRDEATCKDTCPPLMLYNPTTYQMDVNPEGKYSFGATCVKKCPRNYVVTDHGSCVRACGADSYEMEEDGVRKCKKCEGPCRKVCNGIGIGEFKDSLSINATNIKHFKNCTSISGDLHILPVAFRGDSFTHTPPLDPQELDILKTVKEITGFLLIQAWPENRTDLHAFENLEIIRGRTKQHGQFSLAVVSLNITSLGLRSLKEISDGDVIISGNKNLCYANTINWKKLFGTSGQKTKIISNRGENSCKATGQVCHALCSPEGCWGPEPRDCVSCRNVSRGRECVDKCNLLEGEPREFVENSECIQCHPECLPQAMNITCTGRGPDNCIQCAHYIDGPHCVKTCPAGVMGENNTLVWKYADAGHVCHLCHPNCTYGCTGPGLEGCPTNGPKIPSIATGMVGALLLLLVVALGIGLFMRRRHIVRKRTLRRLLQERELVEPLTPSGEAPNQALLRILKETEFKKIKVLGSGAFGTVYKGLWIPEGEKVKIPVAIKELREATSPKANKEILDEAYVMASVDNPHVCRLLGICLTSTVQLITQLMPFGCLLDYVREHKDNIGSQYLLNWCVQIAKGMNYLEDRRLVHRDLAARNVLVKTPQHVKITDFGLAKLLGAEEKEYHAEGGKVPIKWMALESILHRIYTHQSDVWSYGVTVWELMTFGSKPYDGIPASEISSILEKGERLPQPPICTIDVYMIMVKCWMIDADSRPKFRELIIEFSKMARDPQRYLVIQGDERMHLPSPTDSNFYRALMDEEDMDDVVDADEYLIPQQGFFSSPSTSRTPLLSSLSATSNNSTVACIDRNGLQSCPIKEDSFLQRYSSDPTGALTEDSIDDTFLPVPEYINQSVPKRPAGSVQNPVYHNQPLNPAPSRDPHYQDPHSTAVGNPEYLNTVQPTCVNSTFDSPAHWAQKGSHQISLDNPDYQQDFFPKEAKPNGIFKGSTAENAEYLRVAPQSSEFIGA

GAK [2] = biological target: T1, GAK; details: cited from earlier work

Question: Which “GAK affinity (in words)” value (GAK [1]) does the source give for c1csc(-c2cnc3c(N4CCOCC4)snc3c2)c1 [Compound 12a, 4-(6-(Thiophen-2-yl)isothiazolo[4,3-b]pyridin-3-yl)morpholine] here?
Answer: The value was “equipotent”.

Question: With COc1ccc(-c2cnc3c(N4CCOCC4)snc3c2)c(OC)c1 [Compound 12c, 4-(6-(2,4-Dimethoxyphenyl)isothiazolo[4,3-b]pyridin-3-yl)morpholine] as the compound, how does the “GAK affinity (in words)” value (GAK [1]) read?
Answer: The value was “lacks any affinity”.

Question: With c1cc2c(cc1-c1cnc3c(N4CCOCC4)snc3c1)OCO2 [Compound 12f, 4-(6-(Benzo[d][1,3]dioxol-5-yl)isothiazolo[4,3-b]pyridin-3-yl)morpholine] as the compound, how does the “GAK affinity (in words)” value (GAK [1]) read?
Answer: The value was “completely inactive”.

Question: What does the source list for COc1cc(-c2cnc3c(N4CCOCC4)snc3c2)cc(OC)c1OC [Compound 12g, 4-(6-(3,4,5-Trimethoxyphenyl)isothiazolo[4,3-b]pyridin-3-yl)morpholine]?
Answer: effect on cellular viability (in words) (Huh-7.5 cells): minimal effect on cellular viability; effect on HCV RNA replication (in words) (HCV RNA replication): did not affect HCV RNA replication; p-AP2M1 to AP2M1 ratio (in words) (AP2M1 phosphorylation): reduced; anti-EGFR activity (in words) (EGFR): lack anti-EGFR activity

Question: Which “effect on HCV RNA replication (in words)” value (HCV RNA replication) does the source give for COc1cc(-c2cnc3c(N4CCOCC4)snc3c2)ccc1N [Compound 12i, 2-Methoxy-4-(3-morpholinoisothiazolo[4,3-b]pyridin-6-yl)aniline] here?
Answer: Its value is “did not affect HCV RNA replication”.

Question: And the “anti-EGFR activity (in words)” value (EGFR)?
Answer: Its value is “lack anti-EGFR activity”.

Question: Which “GAK affinity (in words)” value (GAK [1]) does the source give for COc1ccc(-c2cnc3c(NCCc4ccccc4)snc3c2)cc1OC [Compound 13k, 6-(3,4-dimethoxyphenyl)-N-phenethylisothiazolo[4,3-b]pyridin-3-amine] here?
Answer: The value was “completely lacking GAK affinity”.

Question: Which “Kd (in words)” value (GAK [2]) does the source give for CCOc1cc2ncc(C#N)c(Nc3ccc(F)c(Cl)c3)c2cc1NC(=O)/C=C/CN(C)C [pelitinib] here?
Answer: Its value is “low nanomolar range”.
